Numbered stars: 1 amine (or outer) side, 2 acyl side, 3 side chain; on linkers, the order of the positions; unused ones are H or OH. Square brackets hold non-standard residues; d marks the D form. Side chains are listed from the residue outwards. Peptide text beside a SMILES is read from it. * marks the point of attachment. C20 diacid = O=C(O)CCCCCCCCCCCCCCCCCCC(=O)*; C18 diacid = O=C(O)CCCCCCCCCCCCCCCCC(=O)*; γGlu = O=C(O)[C@H](CCC(=O)[*:2])N[*:1]; AEEA = NCCOCCOCC(=O)O; Aib = CC(C)(N)C(=O)O
Key:
GC receptor = target: T1, GC receptor (Homo sapiens, UniProt P47871); test: GC receptor mediated cAMP production in vitro (HEK293 cells transfected with GC receptor); format: cell-based; conditions: 20 min at 37° C., read-out: GCGR (nM EC50)
T1 construct: expressed in transfected cells; host or cells: HEK293 cells
T1 sequence (P47871 26-477): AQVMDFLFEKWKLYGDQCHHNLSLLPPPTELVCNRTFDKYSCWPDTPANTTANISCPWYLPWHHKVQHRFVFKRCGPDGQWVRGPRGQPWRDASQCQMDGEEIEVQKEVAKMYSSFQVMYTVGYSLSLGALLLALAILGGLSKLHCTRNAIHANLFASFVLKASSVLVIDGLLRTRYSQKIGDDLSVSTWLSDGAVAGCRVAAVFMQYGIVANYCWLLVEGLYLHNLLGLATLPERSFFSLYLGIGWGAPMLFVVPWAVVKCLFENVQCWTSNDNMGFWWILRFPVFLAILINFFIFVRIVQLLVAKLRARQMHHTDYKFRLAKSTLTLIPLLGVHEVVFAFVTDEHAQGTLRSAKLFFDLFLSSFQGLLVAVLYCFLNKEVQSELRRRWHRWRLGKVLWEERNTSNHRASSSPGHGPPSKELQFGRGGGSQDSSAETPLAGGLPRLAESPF
Text: The medium was removed, the cells were lysed, and cAMP values were detected referring to the detection method described for the assay kit.

physchem = format: physicochemical; conditions: pH 7.5, Solubility
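Throughout, for Solubility: compound added at 2 mg per mL of phosphate buffer, with the dissolved amount determined in the supernatant.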

SMILES	EC50 (GC receptor)	solubility (physchem; pH 7.5, 10 mM phosphate buffer)	solubility (physchem; pH 7.5, 20 mM phosphate buffer)
CCCCCCCCCCCCCCCC(=O)N[C@@H](CCC(=O)N[C@@H](CCC(=O)NCCCC[C@H](NC(=O)[C@H](C)NC(=O)[C@H](C)NC(=O)[C@H](CCCNC(=N)N)NC(=O)[C@H](CCC(=O)O)NC(=O)[C@H](CC(=O)O)NC(=O)[C@H](CC(C)C)NC(=O)[C@H](Cc1ccc(O)cc1)NC(=O)[C@H](CCCCN)NC(=O)[C@H](CO)NC(=O)[C@H](Cc1ccc(O)cc1)NC(=O)[C@H](CC(=O)O)NC(=O)[C@H](CO)NC(=O)[C@@H](NC(=O)[C@H](Cc1ccccc1)NC(=O)[C@@H](NC(=O)CNC(=O)[C@H](CCC(N)=O)NC(=O)C(C)(C)NC(=O)[C@@H](N)Cc1c[nH]cn1)[C@@H](C)O)[C@@H](C)O)C(=O)N[C@@H](CCC(=O)O)C(=O)N[C@@H](Cc1ccccc1)C(=O)N[C@H](C(=O)N[C@@H](C)C(=O)N[C@@H](Cc1c[nH]c2ccccc12)C(=O)N[C@@H](CC(C)C)C(=O)N[C@@H](CCC(=O)O)C(=O)N[C@@H](C)C(=O)NCC(=O)NCC(=O)N1CCC[C@H]1C(=O)N[C@@H](CO)C(=O)N[C@@H](CO)C(=O)NCC(N)=O)C(C)C)C(=O)O)C(=O)O [Compound 15] (HELM PEPTIDE1{H.[Aib].Q.G.T.F.T.S.D.Y.S.K.Y.L.D.E.R.A.A.K.E.F.V.A.W.L.E.A.G.G.P.S.S.G.[am]}|PEPTIDE2{[CCCCCCCCCCCCCCCC(=O)[*:2]].[gGlu].[gGlu]}$PEPTIDE1,PEPTIDE2,20:R3-3:R2$$$V2.0; N-terminus assumed)	0.148 nM		
CC[C@H](C)[C@H](NC(=O)[C@H](Cc1ccccc1)NC(=O)[C@H](CCC(=O)O)NC(=O)[C@H](CCCCNC(=O)COCCOCCNC(=O)COCCOCCNC(=O)CC[C@H](NC(=O)CCCCCCCCCCCCCCCCCCC(=O)O)C(=O)O)NC(=O)[C@H](C)NC(=O)[C@H](CCCCN)NC(=O)[C@H](CCCNC(=N)N)NC(=O)[C@H](CCC(=O)O)NC(=O)[C@H](CCC(=O)O)NC(=O)[C@H](CC(C)C)NC(=O)[C@H](Cc1ccc(O)cc1)NC(=O)[C@H](CCCCN)NC(=O)[C@H](CO)NC(=O)[C@H](Cc1ccc(O)cc1)NC(=O)[C@H](CC(=O)O)NC(=O)[C@H](CO)NC(=O)[C@@H](NC(=O)[C@H](Cc1ccccc1)NC(=O)[C@@H](NC(=O)CNC(=O)[C@H](CCC(N)=O)NC(=O)C(C)(C)NC(=O)[C@@H](N)Cc1c[nH]cn1)[C@@H](C)O)[C@@H](C)O)C(=O)N[C@@H](C)C(=O)N[C@@H](Cc1c[nH]c2ccccc12)C(=O)N[C@@H](CC(C)C)C(=O)N[C@@H](CCC(=O)O)C(=O)NCC(=O)NCC(=O)N1CCC[C@H]1C(=O)N[C@@H](CO)C(=O)N[C@@H](CO)C(=O)NCC(N)=O [Compound 68] (H-H[Aib]QGTFTSDYSKYLEERKAK([AEEA-AEEA-γGlu-C20 diacid])EFIAWLEGGPSSG-NH2; N-terminus assumed)	0.314 nM		
CC[C@H](C)[C@H](NC(=O)[C@H](Cc1ccccc1)NC(=O)[C@H](CCC(=O)O)NC(=O)[C@H](CCCCNC(=O)COCCOCCNC(=O)COCCOCCNC(=O)CC[C@H](NC(=O)CCCCCCCCCCCCCCCCC(=O)O)C(=O)O)NC(=O)[C@H](C)NC(=O)[C@H](C)NC(=O)[C@H](CCCNC(=N)N)NC(=O)[C@H](CCC(=O)O)NC(=O)[C@H](CC(=O)O)NC(=O)[C@H](CC(C)C)NC(=O)[C@H](Cc1ccc(O)cc1)NC(=O)[C@H](CCCCN)NC(=O)[C@H](CO)NC(=O)[C@H](Cc1ccc(O)cc1)NC(=O)[C@H](CC(=O)O)NC(=O)[C@H](CO)NC(=O)[C@@H](NC(=O)[C@H](Cc1ccccc1)NC(=O)[C@@H](NC(=O)CNC(=O)[C@H](CCC(N)=O)NC(=O)[C@H](CO)NC(=O)[C@@H](N)Cc1c[nH]cn1)[C@@H](C)O)[C@@H](C)O)C(=O)N[C@@H](C)C(=O)N[C@@H](Cc1c[nH]c2ccccc12)C(=O)N[C@@H](CC(C)C)C(=O)N[C@@H](CCC(=O)O)C(=O)NCC(=O)NCC(=O)N1CCC[C@H]1C(=O)N[C@@H](CO)C(=O)N[C@@H](CO)C(=O)NCC(N)=O [Compound 38] (H-HSQGTFTSDYSKYLDERAAK([AEEA-AEEA-γGlu-C18 diacid])EFIAWLEGGPSSG-NH2; N-terminus assumed)	0.102 nM		
CCCCCCCCCCCCCCCC(=O)N[C@@H](CCC(=O)N[C@@H](CCC(=O)NCCCC[C@H](NC(=O)[C@H](CC(=O)O)NC(=O)[C@H](CO)NC(=O)[C@@H](NC(=O)[C@H](Cc1ccccc1)NC(=O)[C@@H](NC(=O)CNC(=O)[C@H](CCC(N)=O)NC(=O)C(C)(C)NC(=O)[C@@H](N)Cc1c[nH]cn1)[C@@H](C)O)[C@@H](C)O)C(=O)N[C@@H](CO)C(=O)N[C@@H](CCCCN)C(=O)N[C@@H](Cc1ccc(O)cc1)C(=O)N[C@@H](CC(C)C)C(=O)N[C@@H](CCC(=O)O)C(=O)N[C@@H](CCC(=O)O)C(=O)N[C@@H](CCCCN)C(=O)N[C@@H](CCCNC(=N)N)C(=O)N[C@@H](C)C(=O)N[C@@H](CCCCN)C(=O)N[C@@H](CCC(=O)O)C(=O)N[C@@H](Cc1ccccc1)C(=O)N[C@H](C(=O)N[C@@H](CCC(=O)O)C(=O)N[C@@H](Cc1c[nH]c2ccccc12)C(=O)N[C@@H](CC(C)C)C(=O)N[C@@H](CCC(=O)O)C(=O)N[C@@H](C)C(=O)NCC(=O)NCC(=O)N1CCC[C@H]1C(=O)N[C@@H](CO)C(=O)N[C@@H](CO)C(=O)NCC(N)=O)[C@@H](C)CC)C(=O)O)C(=O)O [Compound 11] (HELM PEPTIDE1{H.[Aib].Q.G.T.F.T.S.D.K.S.K.Y.L.E.E.K.R.A.K.E.F.I.E.W.L.E.A.G.G.P.S.S.G.[am]}|PEPTIDE2{[CCCCCCCCCCCCCCCC(=O)[*:2]].[gGlu].[gGlu]}$PEPTIDE1,PEPTIDE2,10:R3-3:R2$$$V2.0; N-terminus assumed)	1.73 nM		
CC(C)C[C@H](NC(=O)[C@H](Cc1c[nH]c2ccccc12)NC(=O)[C@H](C)NC(=O)[C@@H](NC(=O)[C@H](Cc1ccccc1)NC(=O)[C@H](CCC(=O)O)NC(=O)[C@H](CCCCN)NC(=O)[C@H](C)NC(=O)[C@H](C)NC(=O)[C@H](CCCNC(=N)N)NC(=O)[C@H](CCC(=O)O)NC(=O)[C@H](CC(=O)O)NC(=O)[C@H](CC(C)C)NC(=O)[C@H](Cc1ccc(O)cc1)NC(=O)[C@H](CCCCN)NC(=O)[C@H](CO)NC(=O)[C@H](CCCCNC(=O)COCCOCCNC(=O)COCCOCCNC(=O)CC[C@H](NC(=O)CCCCCCCCCCCCCCCCC(=O)O)C(=O)O)NC(=O)[C@H](CC(=O)O)NC(=O)[C@H](CO)NC(=O)[C@@H](NC(=O)[C@H](Cc1ccccc1)NC(=O)[C@@H](NC(=O)CNC(=O)[C@H](CCC(N)=O)NC(=O)C(C)(C)NC(=O)[C@@H](N)Cc1c[nH]cn1)[C@@H](C)O)[C@@H](C)O)C(C)C)C(=O)N[C@@H](CCC(=O)O)C(=O)N[C@@H](C)C(=O)NCC(=O)NCC(=O)N1CCC[C@H]1C(=O)N[C@@H](CO)C(=O)N[C@@H](CO)C(=O)NCC(N)=O [Compound 24] (H-H[Aib]QGTFTSDK([AEEA-AEEA-γGlu-C18 diacid])SKYLDERAAKEFVAWLEAGGPSSG-NH2)		> 2000 µg/mL	> 2000 µg/mL

— patent publication US12257287B2, “Glucagon-derived peptide and use thereof” (Tianjin Institute of Pharmaceutical Research Co., Ltd., priority 2018, dated 2025)
